Reference: US5840722A, “Use of carboxylic acid derivatives as drugs” (BASF Aktiengesellschaft, priority 1994, dated 1998)
Like-named read-outs stand apart in the source and are kept apart here.

Columns and labels:
human ETA receptor = biological target: T1, human ETA receptor (Homo sapiens, UniProt P25101); assay: Receptor-binding studies, ETA receptor binding assay ([125I]-ET1)
T1 construct: expressed in transfected cells; host or cells: CHO cells (membranes)
T1 sequence (P25101 21-427): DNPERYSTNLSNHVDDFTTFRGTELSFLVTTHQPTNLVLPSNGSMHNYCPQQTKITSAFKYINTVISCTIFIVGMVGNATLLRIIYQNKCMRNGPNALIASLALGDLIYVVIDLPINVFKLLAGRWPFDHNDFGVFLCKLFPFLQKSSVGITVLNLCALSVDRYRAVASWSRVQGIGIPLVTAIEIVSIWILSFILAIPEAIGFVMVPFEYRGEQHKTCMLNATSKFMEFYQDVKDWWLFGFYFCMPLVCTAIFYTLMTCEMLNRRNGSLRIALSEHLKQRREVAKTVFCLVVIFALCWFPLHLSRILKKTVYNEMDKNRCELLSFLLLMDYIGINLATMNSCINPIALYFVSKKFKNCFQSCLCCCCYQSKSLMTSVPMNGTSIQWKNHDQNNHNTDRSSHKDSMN
Description: After 48 h, the cells were washed with PBS and incubated with 0.05% trypsin-containing PBS for 5 min. […] The membranes were centrifuged at 20,000×g for 10 min, and the pellet was stored in liquid nitrogen. […] (ETB receptor assay) in the presence and absence of test substance. The non-specific binding was determined using 10^-7 M ET1. After 30 min, the free and the bound radioligand were separated by filtration through a GF/B glass fiber filter (Whatman, England) in a Skatron cell collector (Skatron, Lier, Norway), and the filters were washed with ice-cold tris-HCl buffer, pH 7.4 with 0.2% BSA. The radioactivity collected on the filters was quantified using a Packard 2200 CA liquid scintillation counter. The Ki values were determined by non-linear regression analysis using the LIGAND program.

ETB receptor = biological target: T2, ETB receptor (Cavia porcellus, UniProt H0VTF3); assay: Receptor-binding studies, ETB receptor binding assay ([125I]-RZ3, guinea pig cerebellar membranes)
T2 construct: Guinea pig cerebella were homogenized in a Potter-Elvejhem homogenizer; from tissue; host or cells: guinea pig cerebellum (membranes)
T2 sequence (H0VTF3 27-415): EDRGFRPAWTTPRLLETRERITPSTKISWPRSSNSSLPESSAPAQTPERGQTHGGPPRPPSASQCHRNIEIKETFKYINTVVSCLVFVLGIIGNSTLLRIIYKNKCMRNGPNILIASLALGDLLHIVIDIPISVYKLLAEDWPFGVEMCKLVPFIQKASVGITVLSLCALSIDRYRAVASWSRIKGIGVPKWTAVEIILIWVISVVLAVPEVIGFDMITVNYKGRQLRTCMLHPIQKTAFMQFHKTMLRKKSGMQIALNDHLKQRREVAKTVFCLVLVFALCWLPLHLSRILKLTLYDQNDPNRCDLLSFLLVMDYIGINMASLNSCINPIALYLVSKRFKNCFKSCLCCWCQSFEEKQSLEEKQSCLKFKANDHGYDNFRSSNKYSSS
Description: Cloned human ETA receptor-expressing CHO cells and guinea pig cerebellar membranes with>60% ETB receptors compared with ETA receptors were used for binding studies.
Guinea pig cerebella were homogenized in a Potter-Elvejhem homogenizer and obtained by differential centrifugation at 1000×g for 10 min and repeated centrifugation of the supernatant at 20,000×g for 10 min.
(ETB receptor assay) in the presence and absence of test substance. The non-specific binding was determined using 10^-7 M ET1. After 30 min, the free and the bound radioligand were separated by filtration through a GF/B glass fiber filter (Whatman, England) in a Skatron cell collector (Skatron, Lier, Norway), and the filters were washed with ice-cold tris-HCl buffer, pH 7.4 with 0.2% BSA. The radioactivity collected on the filters was quantified using a Packard 2200 CA liquid scintillation counter.
The Ki values were determined by non-linear regression analysis using the LIGAND program.

[1] = biological target: T3, endothelin receptor of subtype A (Rattus norvegicus, UniProt P26684); assay: Functional in vitro assay system for endothelin receptor (subtype A) antagonists (ET1-induced intracellular calcium increase); format: cell-based
T3 construct: endogenous endothelin receptor of subtype A has been detected; endogenous in cells
T3 sequence (P26684 21-426): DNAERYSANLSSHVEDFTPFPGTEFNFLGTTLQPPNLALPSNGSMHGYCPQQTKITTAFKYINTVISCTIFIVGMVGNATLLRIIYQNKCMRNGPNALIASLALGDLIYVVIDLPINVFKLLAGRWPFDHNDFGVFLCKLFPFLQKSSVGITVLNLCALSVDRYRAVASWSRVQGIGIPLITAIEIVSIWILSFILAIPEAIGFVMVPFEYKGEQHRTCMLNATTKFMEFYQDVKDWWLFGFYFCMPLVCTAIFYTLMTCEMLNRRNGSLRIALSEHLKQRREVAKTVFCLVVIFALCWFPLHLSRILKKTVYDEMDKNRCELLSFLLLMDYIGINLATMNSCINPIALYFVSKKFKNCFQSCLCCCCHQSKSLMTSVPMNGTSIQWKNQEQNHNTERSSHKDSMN
Description: Functional in vitro assay system for searching for endothelin receptor (subtype A) antagonists This assay system is a functional cell-based assay for endothelin receptors. Certain cells when stimulated with endothelin 1 (ET1) show an increase in the intracellular calcium concentration. This increase can be measured in intact cells which have been loaded with calcium-sensitive dyes. […] The cells were then washed twice with buffer A and resuspended at 2 10^6 /ml. The fluorescence signal at Ex/Em 380/510 from 2×10^5 cells per mL was recorded continuously at 30° C. The test substances were added to the cells and, after incubation with ET1 for 3 min, the maximum change in the fluorescence was determined. The response of the cells to ET1 without previous addition of a test substance served as control and was set equal to 100%.

SMILES | Ki (human ETA receptor) | Ki (ETB receptor) | IC50 [1] | Ki (human ETA receptor; cloned human ETA receptor-expressing CHO cell membranes, 25 pM [125I]-ET1, 25° C., 30 min, read-out: Ki ET-A) | Ki (ETB receptor; guinea pig cerebellar membranes, 25 pM [125I]-RZ3, 25° C., 30 min, read-out: Ki ET-B) | IC50 ([1]; rat fibroblasts loaded with Fura 2-am, ET1-induced fluorescence change, 30° C., read-out: IC50)
COc1cc(OC)nc(OC(C(=O)O)C(C)(Oc2ccc(SC)cc2)c2ccccc2)n1 (stereo not drawn) [Compound 4.58] | 160 nM | 4.7 µM | 1000 nM | – | – | –
COc1cc(OC)nc(OC(C(=O)O)C(C)(Oc2ccc(C(C)C)cc2)c2ccccc2)n1 (stereo not drawn) [Compound 4.42] | – | – | – | 250 nM | 3 µM | 740 nM
